{"source": "patent US6472348B1", "about": "“Pyridone derivatives and herbicides” (Kumiai Chemical Industry Co., Ltd., priority 1996, dated 2002);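 as to Phytotoxicity Tr: grade of crop injury; 5 = at least 90%; 4 = 70 to 90%; 3 = 50 to 70%; 2 = 30 to 50%; 1 = 10 to 30%; 0 = under 10%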", "key": {"China jute (Ab)": {"test_system": "China jute (Ab)", "test": "Test Example 11: crop plant selectivity by upland field foliage treatment (corn), herbicidal effects", "type": "in vivo", "parameters": "scale not given here", "conditions": "dose 1.6 g ai/10a", "in_short": "(§1)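 Corn with pale smartweed, slender amaranth, common lambsquarters and China jute sown in sand-filled pots and grown 2 weeks in a greenhouse before foliage treatment. Herbicidal effect and crop phytotoxicity scored on day 14 after treatment against a rating standard.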"}, "[1]": {"test_system": "common lambsquarters (Ch)", "test": "Test Example 11: crop plant selectivity by upland field foliage treatment (corn), herbicidal effects", "type": "in vivo", "parameters": "scale not given here", "conditions": "dose 1.6 g ai/10a", "in_short": "as §1"}, "pale smartweed (Po) [2]": {"test_system": "pale smartweed (Po)", "test": "Test Example 11: crop plant selectivity by upland field foliage treatment (corn), herbicidal effects", "type": "in vivo", "parameters": "scale not given here", "conditions": "dose 1.6 g ai/10a", "in_short": "as §1"}, "slender amaranth (Am) [3]": {"test_system": "slender amaranth (Am)", "test": "Test Example 11: crop plant selectivity by upland field foliage treatment (corn), herbicidal effects", "type": "in vivo", "parameters": "scale not given here", "conditions": "dose 1.6 g ai/10a", "in_short": "as §1"}, "green foxtail (Se)": {"test_system": "green foxtail (Se)", "test": "Test Example 6: crop plant selectivity by upland field soil treatment (soybean), herbicidal effects", "type": "in vivo", "parameters": "scale not given here", "conditions": "21st day after application", "in_short": "(§2)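 Seeds are sown in sand and covered with soil. The soil is treated with test compound. Pots are kept in a greenhouse. Weed control and soybean damage are rated visually 21 days after application.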"}, "pale smartweed (Po) [4]": {"test_system": "pale smartweed (Po)", "test": "Test Example 6: crop plant selectivity by upland field soil treatment (soybean), herbicidal effects", "type": "in vivo", "parameters": "scale not given here", "conditions": "21st day after application", "in_short": "as §2"}, "slender amaranth (Am) [5]": {"test_system": "slender amaranth (Am)", "test": "Test Example 6: crop plant selectivity by upland field soil treatment (soybean), herbicidal effects", "type": "in vivo", "parameters": "scale not given here", "conditions": "21st day after application", "in_short": "as §2"}, "wheat (Tr)": {"test_system": "wheat (Tr)", "test": "Test Example 9: crop plant selectivity by upland field foliage treatment (wheat), phytotoxicity", "conditions": "dose 1.6 g ai/10a, 14th day after treatment", "in_short": "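Read-out: weed control and wheat injury, rated by a defined scoring standard 14 days after foliar application.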"}, "[6]": {"conditions": "upland field foliage treatment (corn test), 14th day after treatment"}}, "data": [{"smiles": "C#CC(C)Oc1cc(-c2cn(C)c(C(F)(F)F)cc2=O)c(F)cc1Cl", "note": "(racemic) [Compound 6-10]", "values": [{"measurement": "Herbicidal effects Ab", "setting": "China jute (Ab); China jute, foliage treatment, evaluated on 14th day after treatment, index per Table 47", "result": 5}, {"measurement": "Herbicidal effects Ch", "setting": "[1]; common lambsquarters, foliage treatment, evaluated on 14th day after treatment, index per Table 47", "result": 5}, {"measurement": "Herbicidal effects Po", "setting": "pale smartweed (Po) [2]; pale smartweed, foliage treatment, evaluated on 14th day after treatment, index per Table 47", "result": 4}, {"measurement": "Herbicidal effects Am", "setting": "slender amaranth (Am) [3]; slender amaranth, foliage treatment, evaluated on 14th day after treatment, index per Table 47", "result": 5}, {"measurement": "Herbicidal effects Se", "setting": "green foxtail (Se); dose 1.6 g ai/10a", "result": 4}, {"measurement": "Herbicidal effects Po", "setting": "pale smartweed (Po) [4]; dose 1.6 g ai/10a", "result": 5}, {"measurement": "Herbicidal effects Am", "setting": "slender amaranth (Am) [5]; dose 1.6 g ai/10a", "result": 5}]}, {"smiles": "COc1cc(-c2ccc(C(F)(F)F)n(C)c2=O)c(F)cc1Cl", "note": "[1-15]", "values": [{"measurement": "Herbicidal effects Se", "setting": "green foxtail (Se); dose 1.6 g ai/10a", "result": 5}, {"measurement": "Herbicidal effects Po", "setting": "pale smartweed (Po) [4]; dose 1.6 g ai/10a", "result": 5}, {"measurement": "Herbicidal effects Am", "setting": "slender amaranth (Am) [5]; dose 1.6 g ai/10a", "result": 5}]}, {"smiles": "C=CCOc1cc(-c2ccc(C(F)(F)F)n(C)c2=O)c(F)cc1Cl", "note": "[1-16]", "values": [{"measurement": "Herbicidal effects Ab", "setting": "China jute (Ab); [6]", "result": 5}, {"measurement": "Herbicidal effects Ch", "setting": "[1]; [6]", "result": 5}, {"measurement": "Herbicidal effects Po", "setting": "pale smartweed (Po) [2]; [6]", "result": 5}, {"measurement": "Herbicidal effects Am", "setting": "slender amaranth (Am) [3]; [6]", "result": 5}, {"measurement": "Herbicidal effects Se", "setting": "green foxtail (Se); dose 1.6 g ai/10a", "result": 5}, {"measurement": "Herbicidal effects Po", "setting": "pale smartweed (Po) [4]; dose 1.6 g ai/10a", "result": 5}, {"measurement": "Herbicidal effects Am", "setting": "slender amaranth (Am) [5]; dose 1.6 g ai/10a", "result": 5}, {"measurement": "Phytotoxicity Tr", "setting": "wheat (Tr)", "result": 2}]}, {"smiles": "C#CC(C)Oc1cc(-c2ccc(C(F)(F)F)n(C)c2=O)c(F)cc1Cl", "note": "(stereo not shown) [1-17]", "values": [{"measurement": "Herbicidal effects Se", "setting": "green foxtail (Se); dose 1.6 g ai/10a", "result": 5}, {"measurement": "Herbicidal effects Po", "setting": "pale smartweed (Po) [4]; dose 1.6 g ai/10a", "result": 5}, {"measurement": "Herbicidal effects Am", "setting": "slender amaranth (Am) [5]; dose 1.6 g ai/10a", "result": 5}]}, {"smiles": "C#CCOc1cc(-c2ccc(C(F)(F)F)n(C)c2=O)c(F)cc1Cl", "note": "[1-18]", "values": [{"measurement": "Herbicidal effects Ab", "setting": "China jute (Ab); [6]", "result": 5}, {"measurement": "Herbicidal effects Ch", "setting": "[1]; [6]", "result": 5}, {"measurement": "Herbicidal effects Po", "setting": "pale smartweed (Po) [2]; [6]", "result": 5}, {"measurement": "Herbicidal effects Am", "setting": "slender amaranth (Am) [3]; [6]", "result": 5}, {"measurement": "Herbicidal effects Se", "setting": "green foxtail (Se); dose 1.6 g ai/10a", "result": 5}, {"measurement": "Herbicidal effects Po", "setting": "pale smartweed (Po) [4]; dose 1.6 g ai/10a", "result": 5}, {"measurement": "Herbicidal effects Am", "setting": "slender amaranth (Am) [5]; dose 1.6 g ai/10a", "result": 5}]}, {"smiles": "Cn1c(C(F)(F)F)ccc(-c2cc(OCC#N)c(Cl)cc2F)c1=O", "note": "[1-25]", "values": [{"measurement": "Herbicidal effects Ab", "setting": "China jute (Ab); [6]", "result": 5}, {"measurement": "Herbicidal effects Ch", "setting": "[1]; [6]", "result": 5}, {"measurement": "Herbicidal effects Po", "setting": "pale smartweed (Po) [2]; [6]", "result": 5}, {"measurement": "Herbicidal effects Am", "setting": "slender amaranth (Am) [3]; [6]", "result": 5}, {"measurement": "Herbicidal effects Se", "setting": "green foxtail (Se); dose 6.3 g ai/10a", "result": 5}, {"measurement": "Herbicidal effects Po", "setting": "pale smartweed (Po) [4]; dose 6.3 g ai/10a", "result": 5}, {"measurement": "Herbicidal effects Am", "setting": "slender amaranth (Am) [5]; dose 6.3 g ai/10a", "result": 5}, {"measurement": "Phytotoxicity Tr", "setting": "wheat (Tr)", "result": 2}]}, {"smiles": "C#CCOc1cc(-c2ccc(C(F)(F)F)n(C)c2=O)c(Cl)cc1Cl", "note": "[1-30]", "values": [{"measurement": "Herbicidal effects Ab", "setting": "China jute (Ab); [6]", "result": 5}, {"measurement": "Herbicidal effects Ch", "setting": "[1]; [6]", "result": 5}, {"measurement": "Herbicidal effects Po", "setting": "pale smartweed (Po) [2]; [6]", "result": 5}, {"measurement": "Herbicidal effects Am", "setting": "slender amaranth (Am) [3]; [6]", "result": 5}, {"measurement": "Herbicidal effects Se", "setting": "green foxtail (Se); dose 1.6 g ai/10a", "result": 5}, {"measurement": "Herbicidal effects Po", "setting": "pale smartweed (Po) [4]; dose 1.6 g ai/10a", "result": 5}, {"measurement": "Herbicidal effects Am", "setting": "slender amaranth (Am) [5]; dose 1.6 g ai/10a", "result": 5}, {"measurement": "Phytotoxicity Tr", "setting": "wheat (Tr)", "result": 2}]}, {"smiles": "CC(C)Sc1cc(-c2ccc(C(F)(F)F)n(C)c2=O)c(F)cc1Cl", "note": "[1-43]", "values": [{"measurement": "Herbicidal effects Se", "setting": "green foxtail (Se); dose 6.3 g ai/10a", "result": 5}, {"measurement": "Herbicidal effects Po", "setting": "pale smartweed (Po) [4]; dose 6.3 g ai/10a", "result": 5}, {"measurement": "Herbicidal effects Am", "setting": "slender amaranth (Am) [5]; dose 6.3 g ai/10a", "result": 5}, {"measurement": "Phytotoxicity Tr", "setting": "wheat (Tr)", "result": 2}]}, {"smiles": "C#CCSc1cc(-c2ccc(C(F)(F)F)n(C)c2=O)c(F)cc1Cl", "note": "[1-44]", "values": [{"measurement": "Herbicidal effects Se", "setting": "green foxtail (Se); dose 6.3 g ai/10a", "result": 5}, {"measurement": "Herbicidal effects Po", "setting": "pale smartweed (Po) [4]; dose 6.3 g ai/10a", "result": 5}, {"measurement": "Herbicidal effects Am", "setting": "slender amaranth (Am) [5]; dose 6.3 g ai/10a", "result": 5}, {"measurement": "Phytotoxicity Tr", "setting": "wheat (Tr)", "result": 2}]}, {"smiles": "CCOC(=O)c1cc(-c2ccc(C(F)(F)F)n(C)c2=O)c(F)cc1Cl", "note": "[1-65]", "values": [{"measurement": "Herbicidal effects Ab", "setting": "China jute (Ab); [6]", "result": 5}, {"measurement": "Herbicidal effects Ch", "setting": "[1]; [6]", "result": 5}, {"measurement": "Herbicidal effects Po", "setting": "pale smartweed (Po) [2]; [6]", "result": 5}, {"measurement": "Herbicidal effects Am", "setting": "slender amaranth (Am) [3]; [6]", "result": 5}, {"measurement": "Herbicidal effects Se", "setting": "green foxtail (Se); dose 1.6 g ai/10a", "result": 5}, {"measurement": "Herbicidal effects Se", "setting": "green foxtail (Se); dose 6.3 g ai/10a", "result": 5}, {"measurement": "Herbicidal effects Po", "setting": "pale smartweed (Po) [4]; dose 1.6 g ai/10a", "result": 5}, {"measurement": "Herbicidal effects Po", "setting": "pale smartweed (Po) [4]; dose 6.3 g ai/10a", "result": 5}, {"measurement": "Herbicidal effects Am", "setting": "slender amaranth (Am) [5]; dose 1.6 g ai/10a", "result": 5}, {"measurement": "Herbicidal effects Am", "setting": "slender amaranth (Am) [5]; dose 6.3 g ai/10a", "result": 5}, {"measurement": "Phytotoxicity Tr", "setting": "wheat (Tr)", "result": 2}]}, {"smiles": "Cc1cc(-c2ccc(C(F)(F)F)n(C)c2=O)c(F)cc1Cl", "note": "[1-90]", "values": [{"measurement": "Herbicidal effects Se", "setting": "green foxtail (Se); dose 1.6 g ai/10a", "result": 5}, {"measurement": "Herbicidal effects Se", "setting": "green foxtail (Se); dose 6.3 g ai/10a", "result": 5}, {"measurement": "Herbicidal effects Po", "setting": "pale smartweed (Po) [4]; dose 1.6 g ai/10a", "result": 5}, {"measurement": "Herbicidal effects Po", "setting": "pale smartweed (Po) [4]; dose 6.3 g ai/10a", "result": 5}, {"measurement": "Herbicidal effects Am", "setting": "slender amaranth (Am) [5]; dose 1.6 g ai/10a", "result": 5}, {"measurement": "Herbicidal effects Am", "setting": "slender amaranth (Am) [5]; dose 6.3 g ai/10a", "result": 5}]}, {"smiles": "COCSc1cc(-c2ccc(C(F)(F)F)n(C)c2=O)c(F)cc1Cl", "note": "[1-91]", "values": [{"measurement": "Herbicidal effects Se", "setting": "green foxtail (Se); dose 1.6 g ai/10a", "result": 5}, {"measurement": "Herbicidal effects Se", "setting": "green foxtail (Se); dose 6.3 g ai/10a", "result": 5}, {"measurement": "Herbicidal effects Po", "setting": "pale smartweed (Po) [4]; dose 1.6 g ai/10a", "result": 5}, {"measurement": "Herbicidal effects Po", "setting": "pale smartweed (Po) [4]; dose 6.3 g ai/10a", "result": 5}, {"measurement": "Herbicidal effects Am", "setting": "slender amaranth (Am) [5]; dose 1.6 g ai/10a", "result": 5}, {"measurement": "Herbicidal effects Am", "setting": "slender amaranth (Am) [5]; dose 6.3 g ai/10a", "result": 5}, {"measurement": "Phytotoxicity Tr", "setting": "wheat (Tr)", "result": 2}]}, {"smiles": "Cn1c(C(F)(F)F)ccc(-c2cc(Cl)c(Cl)cc2F)c1=O", "note": "[1-136]", "values": [{"measurement": "Herbicidal effects Se", "setting": "green foxtail (Se); dose 1.6 g ai/10a", "result": 5}, {"measurement": "Herbicidal effects Se", "setting": "green foxtail (Se); dose 6.3 g ai/10a", "result": 5}, {"measurement": "Herbicidal effects Po", "setting": "pale smartweed (Po) [4]; dose 1.6 g ai/10a", "result": 5}, {"measurement": "Herbicidal effects Po", "setting": "pale smartweed (Po) [4]; dose 6.3 g ai/10a", "result": 5}, {"measurement": "Herbicidal effects Am", "setting": "slender amaranth (Am) [5]; dose 1.6 g ai/10a", "result": 5}, {"measurement": "Herbicidal effects Am", "setting": "slender amaranth (Am) [5]; dose 6.3 g ai/10a", "result": 5}]}]}
